US6770292B2, “Pharmaceutical compositions for oral administration” (Capsules, priority 2000, dated 2004)

System: blood calcium
Assay: Blood calcium (calcemia) in rats after administration of calcitonin compositions
Type: in vivo, female Wistar rats
Conditions: oral, 72 IU per animal, FIG. 5
Protocol: The study was carried out on female Wistar rats weighing 150 g, divided into groups of 4 rats. Oral administration was effected using an esophageal tube in a volume of 300 μl, corresponding to […] administered per animal.
A volume of 100 μl of an aqueous solution of calcitonin with a titer of 20 IU/ml, corresponding to a dose of 2 IU of calcitonin per animal, was administered subcutaneously to a positive control group.
A volume of 300 μl of an aqueous solution of calcitonin with a titer of 240 IU/ml, corresponding to 72 IU per animal, was administered orally to a negative control group.
The animals were fasted (water diet) 24 hours before the experiment. Blood samples were taken retro-orbitally under general anesthetic at T0 (before administration), T0+1 h, T0+2 h or T0+3 h, T0+5 h. 50 μl of blood are collected in microcapillary tubes containing heparin.
The blood calcium and pH are measured immediately after sample collection, directly in the microcapillary tube, by means of a CIBA-CORNING model 634 automatic analyzer to give the calcemia.

With “calcitonin [non-encapsulated calcitonin solution]” the decrease of calcemia was “not observed”.
